Experimental data: patent publication US7960436B2, “Substituted arylamino-1,2,3,4-tetrahydro naphthalenes and-2,3-dihydro-1H-indenes as potassium channel modulators” (Valeant Pharmaceuticals International, priority 2006, dated 2011)

System: potassium ion channels
Assay: Rubidium (Rb+) efflux assay in NGF-differentiated PC-12 cells
Type: cell-based
Details: depolarization buffer with 15 mM KCl, 10 min at room temperature, read-out: EC50 (compound's concentration for 50% of maximal Rb+ efflux)
Experimental: Several typical compounds of this invention were assayed as potassium channel modulators by measuring rhubidium release.
Methods: PC-12 cells were grown at 37° C. and 5% CO2 in DMEM/F12 Medium supplemented with 10% horse serum, 5% fetal bovine serum, 2 mM glutamine, 100 U/ml penicillin, 100 U/ml streptomycin. They were plated in poly-D-lysine-coated 96-well cell culture microplates at a density of 40,000 cells/well and differentiated with 100 ng/ml NGF-7s for 2-5 days. For the assay, the medium was aspirated and the cells were washed once with 0.2 ml in wash buffer (25 mM HEPES, pH 7.4, 150 mM NaCl, 1 mM MgCl2, 0.8 mM NaH2PO4, 2 mM CaCl2). The cells were then loaded with 0.2 ml Rb^+ loading buffer (wash buffer plus 5.4 mM […], 5 mM glucose) and incubated at 37° C. for 2 h. Attached cells were quickly washed three times with buffer (same as Rb^+ loading buffer, but containing 5.4 mM KCl instead of RbCl) to remove extracellular Rb^+. Immediately following the wash, 0.2 ml of depolarization buffer (wash buffer plus 15 mM KCl) with or without compounds was added to the cells to activate efflux of potassium ion channels. After incubation for 10 min at room temperature, the supernatant was carefully removed and collected. Cells were lysed by the addition of 0.2 ml of lysis buffer (depolarization buffer plus 0.1% Triton X-100) and the cell lysates were also collected. If collected samples were not immediately analyzed for Rb^+ contents by atomic absorption spectroscopy (see below), they were stored at 4° C. without any negative effects on subsequent Rb^+ analysis.
The concentration of Rb^+ in the supernatants (Rb^+Sup) and cell lysates (Rb^+Lys) was quantified using an ICR8000 flame atomic absorption spectrometer (Aurora Biomed Inc., Vancouver, B.C.) under conditions defined by the manufacturer. One 0.05 ml samples were processed automatically from microtiter plates by dilution with an equal volume of Rb^+ sample analysis buffer and injection into an air-acetylene flame. The amount of Rb^+ in the sample was measured by absorption at 780 nm using a hollow cathode lamp as light source and a PMT detector. A calibration curve covering the range 0-5 mg/L Rb^+ in sample analysis buffer was generated with each set of plates. The percent Rb^+ efflux (F) was defined by F=[Rb^+Sup/(Rb^+Sup+Rb^+Lys)]×100% The effect (E) of a compound was defined by: E=[(Fc−Fb)/(Fs−Fb)]×100% where the Fc is the efflux in the presence of compound in depolarization buffer, Fb is the efflux in basal buffer, and Fs is the efflux in depolarization buffer, and. The effect (E) and compound concentration relationship was plotted to calculate an EC50 value, a compound's concentration for 50% of maximal Rb^+ efflux.

SMILES	EC50 [µM]
Nc1cc2c(cc1NC(=O)CCC1CCCC1)CCC2Nc1ccc(F)cc1 (stereo not shown)	< 0.5
Nc1cc2c(cc1NC(=O)CCC1CCCC1)CCC2Nc1ccc(C(F)(F)F)cc1 (stereo not shown)	< 0.5
CC(C)(C)CC(=O)Nc1cc2c(cc1N)C(Nc1ccc(C(F)(F)F)cc1)CC2 (stereo not shown)	< 0.5

Now from value to compound:

EC50 [µM]	SMILES
0.5 to 5	CC(C)(C)CC(=O)Nc1cc2c(cc1N)C(Nc1ccc(F)cc1)CC2 (stereo not shown)
> 5	CCOC(=O)Nc1cc2c(cc1N)C(Nc1ccc(C(F)(F)F)cc1)CCC2 (stereo not shown)
0.5 to 5	CCOC(=O)Nc1ccc2c(c1N)CCC2Nc1ccc(F)cc1 (stereo not shown)
> 5	CCOC(=O)Nc1ccc2c(c1N)CCCC2Nc1ccc(C(F)(F)F)cc1 (stereo not shown)
